In data set [1] the test system is diarrhea. As to the kind of experiment: Inducing effect of diarrhea (rats, oral administration).
Data set [2] deals with Diclofenac sodium-induced stomach ulcer. As to the kind of experiment: Administering time of Ornoprostil and suppression of Diclofenac sodium-induced stomach ulcer. It counts as in vivo, rat. As to conditions: for Antiulcer coefficient: inhibition ratio/incidence rate; for Incidence rate of ulcer (Number of Examples): rat oral.
For data set [3], the system named is glycerol-induced nephropathy. As to the kind of experiment: Glycerol-induced nephropathy. It counts as in vivo, rat. Particulars: serum 48 hours after glycerol. The procedure: After weighing SPF/Crj strain maleness rats (9 weeks of ages), they were so divided that average weight of each group might almost be equal. At 48 hours after 50% glycerol (10 ml/kg) (medium: physiological salt solution) was subcutaneously administered to rats deprived water for 48 hours (±2 hour) on […], about 1.5 ml of blood was gathered from the jugular under ether anesthesia. […] Water was supplied to them 2 hour later from administration of glycerol. Those serums were obtained by centrifugal separation (for about 4° C., 3000 rpm, for 15 minutes) of the gathered blood. Urea nitrogen (abbreviated as UN.) (urease·GIDH method) and creatinine (abbreviated as CRE.) (Creatininase·F-DAOS method) in the obtained serum were measured with the biochemistry automated analyzer (AU400 (trade name), Olympus Optical Co., Ltd.).

[4] abbreviates: OU 0 minutes before Di administering.
[5] abbreviates: OU 5 minutes after Di administering.
Setting [6] is: OU 5 minutes before Di administering.
The mark [7] stands for this setting: OU 10 minutes after Di administering.
The mark [8] stands for this setting: OU 10 minutes before Di administering.
[9] abbreviates: OU 30 minutes after Di administering.
Where [10] appears, read: OU 30 minutes before Di administering.
Where [11] appears, read: OU 60 minutes after Di administering.
[12] abbreviates: OU 60 minutes before Di administering.
Setting [13] is: GC (subcutis) + OU (10 μg) oral.

As to “15-deoxy-16-hydroxy-16-methyl-PGE1 methyl ester [Misoprostol]”, the “Number of animals which cause diarrhea/number of laboratory animals” value in data set [1] (50 μg/kg) is recorded as 0/5; in data set [1] (100 μg/kg), 1/5.

With `CCCC[C@H](C)C[C@H](O)/C=C/[C@H]1[C@H](O)CC(=O)[C@@H]1CC(=O)CCCCC(=O)OC` [Ornoprostil, 17S, 20-dimethyl-6-keto PGE1 methyl ester], the Antiulcer coefficient in data set [2] (setting [4]) turned out to be 86.9; in data set [2] (setting [5]) it was 7.1; in data set [2] (setting [6]) it was 100.9; in data set [2] (setting [7]) it was 28.8; in data set [2] (setting [8]) it was 125.1; in data set [2] (setting [9]), 16.1. For the same compound, the figures for the Antiulcer coefficient in data set [2] (setting [10]), in data set [2] (setting [11]) and in data set [2] (setting [12]) were 56.2, 4.1 and 97.3, respectively. For the same compound, the “Incidence rate of ulcer (Number of Examples)” value in data set [2] (setting [4]) is recorded as 7/8; in data set [2] (setting [5]) it was 7/8; in data set [2] (setting [6]) it was 6/8; in data set [2] (setting [7]) it was 8/8; in data set [2] (setting [8]) it was 5/8; in data set [2] (setting [9]), 7/8. The “Incidence rate of ulcer (Number of Examples)” value in data set [2] (setting [10]) is given as 7/8; in data set [2] (setting [11]), 6/8; in data set [2] (setting [12]) it was 7/8. In addition, the “CRE (serum creatinine)” value came to 1.38 mg/dL in data set [3] (GC (subcutis) + OU (3 μg) oral) and 1.03 mg/dL in data set [3] (setting [13]). Also, the entries for the “UN (serum urea nitrogen)” value in data set [3] (GC (subcutis) + OU (3 μg) oral) and in data set [3] (setting [13]) were 89.7 mg/dL and 79.9 mg/dL, respectively. Moreover, the “Dose which generates induced effect of diarrhea” value in data set [1] is not below 0.4 mg/kg.

For the origin of these results see US20040068014A1 (priority 2001, published 2004).
